# Several values for one entry are separate records, joined by “and”; a condition that tells them apart may be missing. Equal entries are not always repeated.
# What was measured:
# [1] = In vitro stability in 0.1 M PBS (pH 7.4); type: physicochemical; conditions: 24 h incubation at 37 °C, purity by TLC
# Procedure: The stability of [^77Br]2 and [^77Br]3 in 0.1 M phosphate-buffered saline (PBS) (pH 7.4) was high (93.6 ± 0.9% and 93.0 ± 0.6%, respectively). There was no significant decomposition after 24 h incubation at 37 °C for either radiotracer.
# The stability of radiolabeled compounds, [^77Br]2 and [^77Br]3, were analyzed as described previously. The purities radiolabeled compounds were determined by TLC using chloroform/methanol = 5/1 and 20/1 as a developing solvent for [^77Br]2 and [^77Br]3, respectively. The results were confirmed by RP-HPLC.
# [2] = system: BxPC3-luc cells (PDGFRβ-positive); experiment: Cellular uptake study (double tracer method); type: cell-based; conditions: BxPC3-luc (PDGFRβ-positive) vs MCF7 (PDGFRβ-negative), 0.5–4 h
# Procedure: Figure 5 Cellular uptake study. Time-dependent accumulation of (a) [^77Br]2 and [^125I]4 (b) [^77Br]3 and [^125I]5 in BxPC3-luc and MCF7 cells. Data were presented as mean ± SD for three samples.
# Radiotracer uptake experiments in tumor cells were performed using BxPC3-luc and MCF7 cell lines. To compare the uptake between radiobrominated compounds, [^77Br]2 and [^77Br]3, and the corresponding radioiodinated compounds, [^125I]4 and [^125I]5, the cellular uptake experiments were performed by a double tracer method as described previously with a slight modification[30],[31],[35]. Briefly, the cells were seeded in RPMI 1640 medium containing 10% FBS and antibiotics on six-well plates (2 × 10^5 cells/well) for 24 h in a 5% CO2 incubator at 37 °C. After removal of medium, cells were incubated in medium without FBS containing [^77Br]2 (3.7 kBq/well) and [^125I]4 (3.7 kBq/well) or [^77Br]3 (3.7 kBq/well) and [^125I]5 (3.7 kBq/well) and tween-80 (0.1%) for 0.5, 1, 2 and 4 h. Radioiodinated compounds were prepared as described previously][24]. Cells were washed with ice-cold 1 mL of PBS and dissolved using 0.5 mL of 1 M NaOH and wells were washed with 1 M NaOH aqueous solution (0.5 mL). The radioactivity of pooled basic fractions was counted by a gamma counter. A range between 16 and 71 keV was used for measuring ^125I and between 95 and 700 for ^77Br. When radioactivity of ^77Br was counted, the crossover of ^125I activity into the ^77Br channel was negligible. More than one month after the experiment, the radioactivity of ^125I was determined because at that time ^77Br has been decayed and its radioactivity was negligible. The protein in the cell was quantified by a BCA Protein Assay Kit. All data were expressed as %dose/µg protein.
# [3] = Biodistribution in ddY mice; type: in vivo; conditions: i.v. co-injection
# Summary of the method: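 ddY mice got a 100 µL tail-vein injection of [^77Br]2 with [^125I]4, or [^77Br]3 with [^125I]5 (74 kBq each), in saline containing 10% ethanol and 1% tween-80. Animals were killed at 10 min, 1, 4 and 24 h; tumor-bearing mice were killed at 1 h. Resected tissues were weighed and gamma-counted with background correction, and values are %ID/g.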
# BxPC3-luc tumor = experiment: Biodistribution in BxPC3-luc tumor-bearing mice; type: in vivo, BALB/c nu/nu mice; conditions: i.v. co-injection, 1 h
# Summary of the method: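 BALB/c nu/nu mice bearing subcutaneous BxPC3-luc tumours received 74 kBq each of co-injected ^77Br and ^125I tracers i.v. in saline with 10% ethanol, 1% tween-80. Sacrificed 1 h postinjection; tissues weighed and gamma-counted. Values are %ID/g.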
structure (smiles),measurement,setting,value
"COCCOc1ccc2c(c1)ncn2-c1ccc2cccc(N3CCC(NC(=O)c4cccc([77Br])c4)CC3)c2n1 [[^77Br]3, [^77Br]-N-3-bromobenzoyl-1-{2-[5-(2-methoxyethoxy)-1H-benzo[d]imidazol-1-yl]quinolin-8-yl}-piperidin-4-amine]",Stability in 0.1 M PBS (pH 7.4),[1],93.0 ± 0.6%
same,Cellular uptake in BxPC3-luc cells,[2],more highly accumulated in BxPC3-luc cells than in MCF7 cells
same,Radioactivity in Blood,[3]; 10 min,1.68 (0.07) %injected dose/gram tissue
same,Radioactivity in Bone,[3]; 10 min,1.88 (0.15) %injected dose/gram tissue
same,Radioactivity in Brain,[3]; 10 min,0.43 (0.02) %injected dose/gram tissue
same,Radioactivity in Heart,[3]; 10 min,2.70 (0.24) %injected dose/gram tissue
same,Radioactivity in Kidney,[3]; 10 min,5.21 (0.53) %injected dose/gram tissue
same,Radioactivity in Large intestine,[3]; 10 min,0.88 (0.08) %injected dose/gram tissue
same,Radioactivity in Liver,[3]; 10 min,25.80 (2.54) %injected dose/gram tissue
same,Radioactivity in Lung,[3]; 10 min,3.08 (0.65) %injected dose/gram tissue
same,Radioactivity in Muscle,[3]; 10 min,1.28 (0.19) %injected dose/gram tissue
same,Radioactivity in Pancreas,[3]; 10 min,2.61 (0.20) %injected dose/gram tissue
same,Radioactivity in Small intestine,[3]; 10 min,3.28 (0.32) %injected dose/gram tissue
same,Radioactivity in Spleen,[3]; 10 min,3.05 (1.14) %injected dose/gram tissue
same,Radioactivity in Stomach,[3]; 10 min,1.31 (0.22) %injected dose /organ
same,Radioactivity in Blood,[3]; 1 h,0.65 (0.05) %injected dose/gram tissue
same,Radioactivity in Bone,[3]; 1 h,1.60 (0.27) %injected dose/gram tissue
same,Radioactivity in Brain,[3]; 1 h,0.22 (0.05) %injected dose/gram tissue
same,Radioactivity in Heart,[3]; 1 h,1.14 (0.09) %injected dose/gram tissue
same,Radioactivity in Kidney,[3]; 1 h,2.03 (0.33) %injected dose/gram tissue
same,Radioactivity in Large intestine,[3]; 1 h,2.23 (0.75) %injected dose/gram tissue
same,Radioactivity in Liver,[3]; 1 h,7.59 (0.76) %injected dose/gram tissue
same,Radioactivity in Lung,[3]; 1 h,1.18 (0.10) %injected dose/gram tissue
same,Radioactivity in Muscle,[3]; 1 h,0.91 (0.45) %injected dose/gram tissue
same,Radioactivity in Pancreas,[3]; 1 h,1.24 (0.16) %injected dose/gram tissue
same,Radioactivity in Small intestine,[3]; 1 h,14.30 (0.23) %injected dose/gram tissue
same,Radioactivity in Spleen,[3]; 1 h,1.47 (0.20) %injected dose/gram tissue
same,Radioactivity in Stomach,[3]; 1 h,1.10 (0.24) %injected dose /organ
same,Radioactivity in Blood,[3]; 4 h,0.25 (0.04) %injected dose/gram tissue
same,Radioactivity in Bone,[3]; 4 h,1.32 (0.12) %injected dose/gram tissue
same,Radioactivity in Brain,[3]; 4 h,0.19 (0.01) %injected dose/gram tissue
same,Radioactivity in Heart,[3]; 4 h,0.65 (0.05) %injected dose/gram tissue
same,Radioactivity in Kidney,[3]; 4 h,0.65 (0.15) %injected dose/gram tissue
same,Radioactivity in Large intestine,[3]; 4 h,28.99 (2.21) %injected dose/gram tissue
same,Radioactivity in Liver,[3]; 4 h,2.19 (1.38) %injected dose/gram tissue
same,Radioactivity in Lung,[3]; 4 h,0.45 (0.07) %injected dose/gram tissue
same,Radioactivity in Muscle,[3]; 4 h,0.57 (0.24) %injected dose/gram tissue
same,Radioactivity in Pancreas,[3]; 4 h,0.68 (0.10) %injected dose/gram tissue
same,Radioactivity in Small intestine,[3]; 4 h,4.50 (2.02) %injected dose/gram tissue
same,Radioactivity in Spleen,[3]; 4 h,0.88 (0.08) %injected dose/gram tissue
same,Radioactivity in Stomach,[3]; 4 h,0.59 (0.26) %injected dose /organ
same,Radioactivity in Blood,[3]; 24 h,0.39 (0.05) %injected dose/gram tissue
same,Radioactivity in Bone,[3]; 24 h,1.32 (0.17) %injected dose/gram tissue
same,Radioactivity in Brain,[3]; 24 h,0.20 (0.02) %injected dose/gram tissue
same,Radioactivity in Heart,[3]; 24 h,0.72 (0.11) %injected dose/gram tissue
same,Radioactivity in Kidney,[3]; 24 h,0.37 (0.05) %injected dose/gram tissue
same,Radioactivity in Large intestine,[3]; 24 h,0.18 (0.00) %injected dose/gram tissue
same,Radioactivity in Liver,[3]; 24 h,0.18 (0.04) %injected dose/gram tissue
same,Radioactivity in Lung,[3]; 24 h,0.56 (0.07) %injected dose/gram tissue
same,Radioactivity in Muscle,[3]; 24 h,0.54 (0.04) %injected dose/gram tissue
same,Radioactivity in Pancreas,[3]; 24 h,0.68 (0.03) %injected dose/gram tissue
same,Radioactivity in Small intestine,[3]; 24 h,0.18 (0.05) %injected dose/gram tissue
same,Radioactivity in Spleen,[3]; 24 h,0.72 (0.24) %injected dose/gram tissue
same,Radioactivity in Stomach,[3]; 24 h,0.35 (0.06) %injected dose /organ
same,Radioactivity in Blood,BxPC3-luc tumor,1.16 (0.02) %injected dose/gram of tissue
same,Radioactivity in Bone,BxPC3-luc tumor,1.32 (0.08) %injected dose/gram of tissue
same,Radioactivity in Brain,BxPC3-luc tumor,0.17 (0.02) %injected dose/gram of tissue
same,Radioactivity in BxPC3-luc tumor,BxPC3-luc tumor,1.15 %injected dose/gram of tissue and 1.15 (0.35) %injected dose/gram of tissue
same,Radioactivity in Heart,BxPC3-luc tumor,1.83 (0.04) %injected dose/gram of tissue
same,Radioactivity in Kidney,BxPC3-luc tumor,5.95 (0.16) %injected dose/gram of tissue
same,Radioactivity in Large intestine,BxPC3-luc tumor,5.53 (0.96) %injected dose/gram of tissue
same,Radioactivity in Liver,BxPC3-luc tumor,19.82 (2.48) %injected dose/gram of tissue
same,Radioactivity in Lung,BxPC3-luc tumor,3.02 (0.51) %injected dose/gram of tissue
same,Radioactivity in Muscle,BxPC3-luc tumor,1.05 (0.18) %injected dose/gram of tissue
same,Radioactivity in Pancreas,BxPC3-luc tumor,2.15 (0.13) %injected dose/gram of tissue
same,Radioactivity in Small intestine,BxPC3-luc tumor,32.72 (3.10) %injected dose/gram of tissue
same,Radioactivity in Spleen,BxPC3-luc tumor,2.51 (0.17) %injected dose/gram of tissue
same,Radioactivity in Stomach,BxPC3-luc tumor,0.67 (0.14) %injected dose /organ
